Experimental data: patent publication EP0934745B1, “Use of androsterone derivatives for inhibiting DNA binding of ap-1 and airway smooth muscle proliferation” (CHARLOTTE-MECKLENBURG HOSPITAL doing business as Carolinas …, priority 1998, dated 1999)

Tested on: rat tracheal smooth muscle
Experiment: Proliferation of cultured airway smooth muscle (MTT reduction, cell counts)
Type: cell-based
Conditions: for growth inhibition by direct visual count of stained cells: 10% FBS, 15,000 cells/well cultured for 24 hours (Figure 4A); for inhibition of FBS-induced cell proliferation (comparison in words): 10% FBS, 15,000 cells/well, 92-96 hours, MTT (Figures 3A, 3C)
Method: Polyclonal horseradish peroxidase anti-rabbit IgG was from Transduction Laboratories (Lexington, KY). M-MLV reverse transcriptase was from Life Technologies (Gaithersburg, MD). All other materials were obtained from Sigma unless specified. Measurement of Cultured Airway Smooth Muscle Proliferation. Rat tracheal smooth muscle was cultured by euthanizing rats with pentobarbital overdose and removal of their tracheas. The posterior tracheal membrane was isolated, minced and digested twice for 30 minutes at 37°C. in HBSS containing 0.2% type IV collagenase and 0.05% type IV elastase. Each enzyme digest was collected and centrifuged for 5 minutes at 500 g at room temperature. The supernatant was removed and the pellet was resuspended in DMEM supplemented with 10% FBS, nonessential amino acids, penicillin (100 U/ml), streptomycin (100 µg/ml) and amphotericin (250 ng/ml). Cells were seeded in this medium into 25-cm^2 flasks at 2 x 10^5 cells per flask and incubated in a humidified atmosphere of 5% CO2/95% air at 37°C. Upon reaching confluence, cells were detached with 0.25% trypsin-0.002% EDTA solution for passage.
Proliferation of cultured airway smooth muscle was quantitated using modification of a previously reported colorimetric method based upon metabolic reduction of the soluble yellow tetrazolium dye 3-[4,5-dimethylthiazol]-2yl-2,5-diphenyl tetrazolium bromide (MTT) to its insoluble purple formazan by the action of mitochondrial succinyl dehydrogenase. See Hirst, S.J., Barnes, P.J., and Twort, C.H.C., "Quantifying proliferation of cultured human and rabbit airway smooth muscle in response to serum and platelet derived growth factor," Am. J. Respir. Cell Mol. Biol., 7, 574-581 (1992). This assay empirically distinguishes between dead and living cells. For proliferation studies, cells were seeded into 24-well uncoated plastic plates at 15,000-50,000 cells per well and cultured with DMEM and mitogens. After 24-96 hours the medium was replaced with 1 ml/well fresh DMEM containing 100 µg/ml MTT and 0.5% FBS, and plates were incubated an additional hour MTT-containing medium was removed, cells were washed twice with 1 ml of sterile Dulbecco's modified phosphate buffered saline without Ca^2+ or Mg^2+ (DPBS), 0.5 ml dimethylsulfoxide (DMSO) was added to each well, and the absorbance of the solubilized purple formazan dye was measured at 540 nm on a Shimadzu UV160U spectrophotometer. A total of 4-6 wells was studied at each treatment condition.
The optimum concentration of FBS for use as a mitogenic stimulus was determined by incubating 15,000 cells per well with DMEM containing 0.25, 1.0, 5.0 or 10.0% FBS and MTT reduction was determined after 24, 48, 72 or 96 hours. […] After 24 hours, cells were washed twice with DPBS, fixed and permeabilized by two sequential 5 minute exposures to ice-cold methanol, stained with Giemsa-modified Wright's stain for 3 minutes and washed with DPBS. Cell counts were performed on 10 random fields at 40 power using a 0.01-cm^2 ocular grid. Cell Culture Treatments for Measurement of Airway Smooth Muscle Proliferation. The effect of dehydroepiandrosterone (DHEA) and 16α-bromoepiandrosterone (16α-BrEA) on cellular proliferation was studied in cultures stimulated with 0.5-10% FBS or 1-50 ng/ml recombinant human platelet derived growth factor (PDGF-AA). […] See, for example, the method of Le, Y. Y. , and Xu, R.B., "The molecular mechanism of the action of the pharmacological doses of glucocorticoids. Studies on the low-affinity glucocorticoid receptor," Receptor, 5, 63-69 (1995).

SMILES | growth inhibition by direct visual count of stained cells | inhibition of FBS-induced cell proliferation (comparison in words) | IC50 (Rattus norvegicus, 48 h, read-out: 50% inhibitory concentration) | cell proliferation stimulated by PDGF (50 ng/ml PDGF, 50,000 cells/well cultured for 72 hours, MTT (Figure 3B))
C[C@]12CC[C@H](O)C[C@@H]1CC[C@@H]1[C@@H]2CC[C@]2(C)C(=O)[C@H](Br)C[C@@H]12 [16α-BrEA, 16α-bromoepiandrosterone] | confirmed by cell counts | even more potent inhibitor of FBS-induced cell proliferation than DHEA | 7.5 µM | –
C[C@]12CC[C@H](O)CC1=CC[C@@H]1[C@@H]2CC[C@]2(C)C(=O)CC[C@@H]12 [DHEA, dehydroepiandrosterone] | confirmed by cell counts | more active than DHEA-sulfate at high concentrations | – | inhibites cell proliferation
